The results in this text go back to patent publication US8865911B2, “Compounds and their use as BACE inhibitors” (Astrazeneca AB, priority 2010, dated 2014).

The target in the assay is human β-Secretase (Homo sapiens (Human), UniProt P56817). Description: TR-FRET assay. Format: biochemical. Particulars: sBACE-Fc, substrate (Europium)CEVNLDAEFK(Qsy7) 100 nM, pH4.5, 15 minutes at r.t. How it is done:
The β-secretase enzyme used in the TR-FRET is prepared as follows: The cDNA for the soluble part of the human β-Secretase (AA 1-AA 460) was cloned using the ASP2-Fc10-1-IRES-GFP-neoK mammalian expression vector. The gene was fused to the Fc domain of IgG1 (affinity tag) and stably cloned into HEK 293 cells.
The robotic systems Biomek FX and Velocity 11 were used for all liquid handling and the enzyme and substrate solutions were kept on ice until they were placed in the robotic system. Enzyme (9 μl) was added to the plate then 1 μl of compound in dimethylsulphoxide was added, mixed and pre-incubated for 10 minutes. Substrate (10 μl) was then added, mixed and the reaction proceeded for 15 minutes at r.t. The reaction was stopped with the addition of Stop solution (7 μl, NaAcetate, pH 9). […] The dimethylsulphoxide control, instead of test compound, defined the 100% activity level and 0% activity was defined by wells lacking enzyme (replaced with reaction buffer).
Background: In TR-FRET formats the signal depends on donor and acceptor labels being close together.

SMILES strings stand for the structures.

Chain of human β-Secretase (P56817 22-460): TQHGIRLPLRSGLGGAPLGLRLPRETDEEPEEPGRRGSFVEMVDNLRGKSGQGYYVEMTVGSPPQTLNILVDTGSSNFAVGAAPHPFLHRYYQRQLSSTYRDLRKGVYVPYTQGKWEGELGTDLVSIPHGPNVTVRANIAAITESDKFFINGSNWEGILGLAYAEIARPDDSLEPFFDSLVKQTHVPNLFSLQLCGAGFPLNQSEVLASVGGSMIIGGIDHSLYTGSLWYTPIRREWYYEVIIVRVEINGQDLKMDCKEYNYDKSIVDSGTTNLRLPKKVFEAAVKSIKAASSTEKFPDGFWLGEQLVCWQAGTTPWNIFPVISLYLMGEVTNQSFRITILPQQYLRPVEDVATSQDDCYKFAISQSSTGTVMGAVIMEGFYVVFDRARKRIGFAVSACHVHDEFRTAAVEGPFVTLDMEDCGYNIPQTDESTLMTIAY

For the molecule `CC#Cc1cncc(-c2ccc3c(c2)C2(N=C(C)C(N)=N2)[C@]2(CC[C@H](OC)CC2)C3)c1C` (stereo partly shown) [Example 63, (1r,4r)-4-Methoxy-5″-methyl-6′-[4-methyl-5-(prop-1-yn-1-yl)pyridin-3-yl]-3′H-dispiro[cyclohexane-1,2′-indene-1′,2″-imidazol]-4″-amine], half-maximal inhibition (IC50) required 89 nM. With `CC1=NC2(CC(C3CCCOC3)Oc3ccc(Br)cc32)N=C1N` (single isomer, unassigned) [Example 47 Isomer 3, 6-Bromo-5′-methyl-2-(tetrahydro-2H-pyran-3-yl)spiro[chromane-4,2′-imidazole]-4′-amine], the “IC50 in TR-FRET assay” value is “inactive”.

On to `CC1=NC2(CC(C3CCCOC3)Oc3ccc(Br)cc32)N=C1N` (single isomer, unassigned) [Example 47 Isomer 2, 6-Bromo-5′-methyl-2-(tetrahydro-2H-pyran-3-yl)spiro[chromane-4,2′-imidazole]-4′-amine], for which the concentration for half-maximal inhibition (IC50) – broadly, the concentration that inhibits the measured activity by half – stood at 1030 nM. In turn, `CCO[C@H]1CC[C@]2(CC1)Cc1ccc(-c3cc(C#N)cc(C(F)F)c3)cc1C21N=C(C)C(N)=N1` (stereo partly shown) [Example 134, 3-[(1r,4r)-4″-Amino-4-ethoxy-5″-methyl-3′H-dispiro[cyclohexane-1,2′-indene-1′,2″-imidazol]-6′-yl]-5-(difluoromethyl)benzonitrile] returned a concentration for half-maximal inhibition (IC50) of 28 nM. Consider `CC1=NC2(CC(C3CCCOC3)Oc3ccc(Br)cc32)N=C1N` (single isomer, unassigned) [Example 47 Isomer 7, 6-Bromo-5′-methyl-2-(tetrahydro-2H-pyran-3-yl)spiro[chromane-4,2′-imidazole]-4′-amine], for which the “IC50 in TR-FRET assay” value is “inactive”. On to `CC#Cc1cncc(-c2ccc3c(c2)C2(N=C(C)C(N)=N2)[C@]2(CC[C@](C)(OC)CC2)C3)c1` (stereo partly shown) [Example 111, (1r,4r)-4-Methoxy-4,5″-dimethyl-6′-[5-(prop-1-yn-1-yl)pyridin-3-yl]-3′H-dispiro[cyclohexane-1,2′-indene-1′,2″-imidazol]-4″-amine], for which the midpoint of inhibition, the IC50, lay at 51 nM.

In turn, `CC1=NC2(N=C1N)c1cc(-c3cc(F)cc(C#N)c3)ccc1CC21CCC(=O)CC1` (stereo not shown) [Example 115, 3-(4″-Amino-5″-methyl-4-oxodispiro[cyclohexane-1,2′-[1H]indene-1′(3′H),2″-[2H]imidazol]-6′-yl)-5-fluorobenzonitrile] displayed a 50% inhibitory concentration (IC50) of 632 nM.

Regarding `CC1=NC2(CC(C3CCOC(C)(C)C3)Oc3ccc(Br)cc32)N=C1N` (mixture of isomers) [Example 49 Isomeric mixture 2, 6-Bromo-2-(2,2-dimethyltetrahydro-2H-pyran-4-yl)-5′-methyl-spiro[chromane-4,2′-imidazole]-4′-amine], the “IC50 in TR-FRET assay” value is “inactive”.

Molecule `CC1=NC2(N=C1N)c1cc(-c3ccc(F)c(Cl)c3)ccc1CC21CCOCC1` (stereo not shown) [Example 26c, 6′-(3-Chloro-4-fluorophenyl)-5-methyl-2″,3″,5″,6″-tetrahydro-3′H-dispiro[imidazole-2,1′-indene-2′,4″-pyran]-4-amine] displayed an IC50 of 145 nM. Same read-out and setting: as for `CCO[C@H]1CC[C@]2(CC1)Cc1ccc(-c3cncc(Cl)c3)cc1C21N=C(C)C(N)=N1` (stereo partly shown) [Example 133, (1r,4r)-6′-(5-chloropyridin-3-yl)-4-ethoxy-5″-methyl-3′H-dispiro[cyclohexane-1,2′-indene-1′,2″-imidazol]-4″-amine], the figure is 25 nM; as for `CC1=NC2(CC(C3CCCOC3)Oc3ccc(Br)cc32)N=C1N` (single isomer, unassigned) [Example 47 Isomer 4, 6-Bromo-5′-methyl-2-(tetrahydro-2H-pyran-3-yl)spiro[chromane-4,2′-imidazole]-4′-amine], 65300 nM. On to `CC1=NC2(N=C1N)c1cc(Br)ccc1CC21CCC1` (stereo not shown) [Example 54, 6′-Bromo-5″-methyl-3′H-dispiro[cyclobutane-1,2′-indene-1′,2″-imidazol]-4″-amine], for which half-maximal inhibition (IC50) was put at 6610 nM. On the same count and under the same terms, with `CC1=NC2(CC(C3CCCOC3)Oc3ccc(Br)cc32)N=C1N` (single isomer, unassigned) [Example 47 Isomer 6, 6-Bromo-5′-methyl-2-(tetrahydro-2H-pyran-3-yl)spiro[chromane-4,2′-imidazole]-4′-amine] the figure was 1380 nM; with `CC1=NC2(N=C1N)c1cc(-c3cc(F)cc(F)c3)ccc1C[C@]21CC[C@@H](OC(F)F)CC1` (stereo partly shown) [Example 109, (1r,4r)-4-(Difluoromethoxy)-6′-(3,5-difluorophenyl)-5″-methyl-3′H-dispiro[cyclohexane-1,2′-indene-1′,2″-imidazol]-4″-amine], 21 nM. The molecule `COc1ccc(OC)c(-c2ccc3c(c2)C2(CCO3)N=C(C)C(N)=N2)c1` (stereo not shown) [Example 5, 6-(2,5-Dimethoxyphenyl)-5′-methylspiro[chroman-4,2′-imidazol]-4′-amine] registered an IC50 of 3640 nM.

In the case of `CO[C@H]1CC[C@]2(CC1)Cc1ccc(-c3cccc(F)c3F)cc1[C@@]21N=C(C)C(N)=N1` [Example 101], the half-maximal inhibitory concentration (IC50) was determined as 19.8 nM. On the same count and under the same terms, as for `CC1=NC2(CCOc3ccc(-c4cc(Cl)cc(Cl)c4)cc32)N=C1N` (stereo not shown) [Example 1, 6-(3,5-Dichlorophenyl)-5′-methylspiro[chroman-4,2′-imidazol]-4′-amine], the figure is 157 nM. Same read-out and setting: as for `CC1=NC2(CC(C3CCOC(C)(C)C3)Oc3ccc(-c4cccc(Cl)c4)cc32)N=C1N` (racemic) [Example 50 Isomeric mixture 1, 6-(3-Chlorophenyl)-2-(2,2-dimethyltetrahydro-2H-pyran-4-yl)-5′-methylspiro[chroman-4,2′-imidazol]-4′-amine], the figure is 100 nM; as for `CC1=NC2(CC(C3CCOC(C)(C)C3)Oc3ccc(Br)cc32)N=C1N` (mixture of isomers) [Example 49 Isomeric mixture 1, 6-Bromo-2-(2,2-dimethyltetrahydro-2H-pyran-4-yl)-5′-methyl-spiro[chromane-4,2′-imidazole]-4′-amine], 10 nM; as for `CC1=NC2(N=C1N)c1cc(NC(=O)c3ccc(Cl)cn3)ccc1CC21CCC(F)(F)CC1` (stereo not shown) [Example 28d, N-(4″-Amino-4,4-difluoro-5″-methyl-3′H-dispiro[cyclohexane-1,2′-indene-1′,2″-imidazol]-6′-yl)-5-chloropyridine-2-carboxamide], 408 nM. For `CC1=NC2(CCOc3ccc(NC(=O)c4ncc(Cl)cc4Cl)cc32)N=C1N` (stereo not shown) [Example 13i, N-(4′-Amino-5′-methylspiro[chroman-4,2′-imidazole]-6-yl)-3,5-dichloropicolinamide], the IC50 was found to be 560 nM. On the same count and under the same terms, with `CC1=NC2(N=C1N)c1cc(C#CC(C)(C)C)ccc1CC21CCC1` (stereo not shown) [Example 59, 6′-(3,3-Dimethylbut-1-yn-1-yl)-5″-methyl-3′H-dispiro[cyclobutane-1,2′-indene-1′,2″-imidazol]-4″-amine] the figure was 2610 nM; with `CC1=NC2(CCOc3ccc(-c4cc(C)ccc4F)cc32)N=C1N` (stereo not shown) [Example 11, 6-(2-Fluoro-5-methylphenyl)-5′-methylspiro[chroman-4,2′-imidazol]-4′-amine], 1980 nM; with `CC1=NC2(CCOc3ccc(NC(=O)c4ccc(Cl)cn4)cc32)N=C1N` (stereo not shown) [Example 13a, N-(4′-Amino-5′-methylspiro[chroman-4,2′-imidazole]-6-yl)-5-chloropicolinamide], 1300 nM.

Take `CC1=NC2(CCOc3ccc(NC(=O)c4ccc(C)s4)cc32)N=C1N` (stereo not shown) [Example 13f, N-(4′-Amino-5′-methylspiro[chroman-4,2′-imidazole]-6-yl)-5-methylthiophene-2-carboxamide]: the IC50 was 6460 nM. The same measure, in the same setting: as for `CC1=N[C@]2(N=C1N)c1cc(-c3cc(F)cc(C#N)c3)ccc1C[C@]21CC[C@@H](OC(F)F)CC1` (racemic) [Example 105, 3-[(1r,4r)-4″-Amino-4-(difluoromethoxy)-5″-methyl-3′H-dispiro[cyclohexane-1,2′-indene-1′,2″-imidazol]-6′-yl]-5-fluorobenzonitrile], the figure is 22 nM; as for `COCc1cc(F)cc(-c2ccc3c(c2)C2(N=C(C)C(N)=N2)[C@]2(CC[C@H](OC)CC2)C3)c1` (stereo partly shown) [Example 81, (1r,4r)-6′-[3-Fluoro-5-(methoxymethyl)phenyl]-4-methoxy-5″-methyl-3′H-dispiro[cyclohexane-1,2′-indene-1′,2″-imidazol]-4″-amine], 23 nM.

`COc1ccc(C)cc1-c1ccc2c(c1)C1(CCO2)N=C(C)C(N)=N1` (stereo not shown) [Example 10, 6-(2-Methoxy-5-methylphenyl)-5′-methylspiro[chroman-4,2′-imidazol]-4′-amine] showed an IC50 of 6850 nM. As for `CC1=NC2(CC(C3CCCOC3)Oc3ccc(Br)cc32)N=C1N` (single isomer, unassigned) [Example 47 Isomer 1, 6-Bromo-5′-methyl-2-(tetrahydro-2H-pyran-3-yl)spiro[chromane-4,2′-imidazole]-4′-amine], the “IC50 in TR-FRET assay” value is “inactive”. Molecule `CC1=NC2(N=C1N)c1cc(Br)ccc1CC21CCC(C(F)F)CC1` (stereo not shown) [Example 128, 6′-Bromo-4-(difluoromethyl)-5″-methyl-3′H-dispiro[cyclohexane-1,2′-indene-1′,2″-imidazol]-4″-amine] had an IC50 of 2610 nM. On the same count and under the same terms, with `CC#Cc1cncc(-c2ccc3c(c2)C2(N=C(C)C(N)=N2)[C@]2(CC[C@H](OCC)CC2)C3)c1` (stereo partly shown) [Example 135, (1r,4r)-4-Ethoxy-5″-methyl-6′-[5-(prop-1-yn-1-yl)pyridin-3-yl]-3′H-dispiro[cyclohexane-1,2′-indene-1′,2″-imidazol]-4″-amine] the figure was 22 nM.
